Where “and” joins values, the source holds several entries; their conditions need not be identical. Equal values may be shown once.
What was measured:
Assay type in all cases: cell-based
HIV-1/Ba-L = assay: Inhibition of HIV-1 Ba-L replication in PBMC (RT values); conditions: for % VC: RT relative to virus control; for RT Values (cpm), SAMPLE: individual samples
Protocol: (§1) These compounds were further screened for activity in HIV-1-infected peripheral blood mononuclear cells (PBMC). The data (experiments were repeated, so duplicates are shown) is summarized in the tables below, and also in FIGS. 4A-B and 5A-B.
The HIV strain was HIV-1/Ba-L. The titer was 0.1 μL/well.

[1] = Toxicity in PBMC (Cell Titer 96); conditions: human, peripheral blood mononuclear cells (PBMC); PBMC, Cell Titer 96
Source text: as §1

PBMC = assay: Toxicity in PBMC (Cell Titer 96); conditions: for % CC: O.D. relative to cell control; for TOXICITY VALUES (Cell Titer 96 - O.D. @ 490/650 nm), SAMPLE: individual samples
Source text: as §1

**Q.** Which “RT Values (cpm), MEAN” value (HIV-1/Ba-L; 0.01 μM) does the source give for `c1ccc(N/N=C2/CCc3ccccc3N2)cc1` [HIT #154] here?
**A.** 29112.2 cpm

**Q.** What about the “% VC” value (HIV-1/Ba-L; 0.01 μM) of the same compound?
**A.** 98.8%

**Q.** And the “RT Values (cpm), SAMPLE” value (HIV-1/Ba-L; 0.01 μM)?
**A.** 31907 cpm and 25645 cpm and 29785 cpm

**Q.** What about the “RT Values (cpm), MEAN” value (HIV-1/Ba-L; 0.03 μM) of the same compound?
**A.** 29394.5 cpm

**Q.** What about the “% VC” value (HIV-1/Ba-L; 0.03 μM) of the same compound?
**A.** 99.8%

**Q.** What about the “RT Values (cpm), SAMPLE” value (HIV-1/Ba-L; 0.03 μM) of the same compound?
**A.** 28419 cpm and 27673 cpm and 32092 cpm

**Q.** What about the “RT Values (cpm), MEAN” value (HIV-1/Ba-L; 0.10 μM) of the same compound?
**A.** 28793.5 cpm

**Q.** And the “% VC” value (HIV-1/Ba-L; 0.10 μM)?
**A.** 97.8%

**Q.** What about the “RT Values (cpm), SAMPLE” value (HIV-1/Ba-L; 0.10 μM) of the same compound?
**A.** 24503 cpm and 28356 cpm and 33522 cpm

**Q.** What about the “RT Values (cpm), MEAN” value (HIV-1/Ba-L; 0.32 μM) of the same compound?
**A.** 28067.5 cpm

**Q.** And the “% VC” value (HIV-1/Ba-L; 0.32 μM)?
**A.** 95.3%

**Q.** What about the “RT Values (cpm), SAMPLE” value (HIV-1/Ba-L; 0.32 μM) of the same compound?
**A.** 30361 cpm and 24204 cpm and 29638 cpm

**Q.** What about the “RT Values (cpm), MEAN” value (HIV-1/Ba-L; 1.00 μM) of the same compound?
**A.** 19065.5 cpm

**Q.** And the “% VC” value (HIV-1/Ba-L; 1.00 μM)?
**A.** 64.7%

**Q.** And the “RT Values (cpm), SAMPLE” value (HIV-1/Ba-L; 1.00 μM)?
**A.** 18120 cpm and 21373 cpm and 17704 cpm

**Q.** And the “RT Values (cpm), MEAN” value (HIV-1/Ba-L; 3.16 μM)?
**A.** 15141.8 cpm

**Q.** What about the “% VC” value (HIV-1/Ba-L; 3.16 μM) of the same compound?
**A.** 51.4%

**Q.** And the “RT Values (cpm), SAMPLE” value (HIV-1/Ba-L; 3.16 μM)?
**A.** 12447 cpm and 16921 cpm and 16058 cpm

**Q.** What about the “RT Values (cpm), MEAN” value (HIV-1/Ba-L; 10.0 μM) of the same compound?
**A.** 12407.5 cpm

**Q.** What about the “% VC” value (HIV-1/Ba-L; 10.0 μM) of the same compound?
**A.** 42.1%

**Q.** And the “RT Values (cpm), SAMPLE” value (HIV-1/Ba-L; 10.0 μM)?
**A.** 13978 cpm and 10363 cpm and 12882 cpm

**Q.** And the “RT Values (cpm), MEAN” value (HIV-1/Ba-L; 31.6 μM)?
**A.** 9086.8 cpm

**Q.** And the “% VC” value (HIV-1/Ba-L; 31.6 μM)?
**A.** 30.9%

**Q.** And the “RT Values (cpm), SAMPLE” value (HIV-1/Ba-L; 31.6 μM)?
**A.** 10815 cpm and 7472 cpm and 8974 cpm

**Q.** What about the “RT Values (cpm), MEAN” value (HIV-1/Ba-L; 100 μM) of the same compound?
**A.** 2467.8 cpm

**Q.** What about the “% VC” value (HIV-1/Ba-L; 100 μM) of the same compound?
**A.** 8.4%

**Q.** What about the “RT Values (cpm), SAMPLE” value (HIV-1/Ba-L; 100 μM) of the same compound?
**A.** 3062 cpm and 2720 cpm and 1622 cpm

**Q.** And the “IC 95%” value (HIV-1/Ba-L; HIV-1 Ba-L in PBMC)?
**A.** 65.1 µM and >100 µM

**Q.** What about the “ANTIVIRAL INDEX (AI) 95%” value (HIV-1/Ba-L; TC/IC at 95%) of the same compound?
**A.** >1.54

**Q.** And the CC50 [1]?
**A.** > 100 µM

**Q.** What about the “TOXICITY VALUES (Cell Titer 96 - O.D. @ 490/650 nm), MEAN” value (“TOXICITY VALUES … MEAN” below) (PBMC; 0.01 μM) of the same compound?
**A.** 0.990 O.D.

**Q.** And the “% CC” value (PBMC; 0.01 μM)?
**A.** 119.6%

**Q.** And the “TOXICITY VALUES (Cell Titer 96 - O.D. @ 490/650 nm), SAMPLE” value (“TOXICITY VALUES … SAMPLE” below) (PBMC; 0.01 μM)?
**A.** 1.163 O.D. and 1.007 O.D. and 0.800 O.D.

**Q.** And the “TOXICITY VALUES … MEAN” value (PBMC; 0.03 μM)?
**A.** 0.810 O.D.

**Q.** What about the “% CC” value (PBMC; 0.03 μM) of the same compound?
**A.** 97.9%

**Q.** And the “TOXICITY VALUES … SAMPLE” value (PBMC; 0.03 μM)?
**A.** 0.746 O.D. and 0.831 O.D. and 0.853 O.D.

**Q.** What about the “TOXICITY VALUES … MEAN” value (PBMC; 0.10 μM) of the same compound?
**A.** 0.966 O.D.

**Q.** And the “% CC” value (PBMC; 0.10 μM)?
**A.** 116.8%

**Q.** And the “TOXICITY VALUES … SAMPLE” value (PBMC; 0.10 μM)?
**A.** 1.086 O.D. and 0.970 O.D. and 0.843 O.D.

**Q.** What about the “TOXICITY VALUES … MEAN” value (PBMC; 0.32 μM) of the same compound?
**A.** 0.937 O.D.

**Q.** What about the “% CC” value (PBMC; 0.32 μM) of the same compound?
**A.** 113.3%

**Q.** What about the “TOXICITY VALUES … SAMPLE” value (PBMC; 0.32 μM) of the same compound?
**A.** 0.736 O.D. and 1.231 O.D. and 0.845 O.D.

**Q.** What about the “TOXICITY VALUES … MEAN” value (PBMC; 1.00 μM) of the same compound?
**A.** 1.077 O.D.

**Q.** What about the “% CC” value (PBMC; 1.00 μM) of the same compound?
**A.** 130.2%

**Q.** And the “TOXICITY VALUES … SAMPLE” value (PBMC; 1.00 μM)?
**A.** 1.296 O.D. and 1.045 O.D. and 0.892 O.D.

**Q.** What about the “TOXICITY VALUES … MEAN” value (PBMC; 3.16 μM) of the same compound?
**A.** 0.964 O.D.

**Q.** And the “% CC” value (PBMC; 3.16 μM)?
**A.** 116.5%

**Q.** What about the “TOXICITY VALUES … SAMPLE” value (PBMC; 3.16 μM) of the same compound?
**A.** 1.146 O.D. and 0.903 O.D. and 0.843 O.D.

**Q.** And the “TOXICITY VALUES … MEAN” value (PBMC; 10.0 μM)?
**A.** 0.937 O.D.

**Q.** What about the “% CC” value (PBMC; 10.0 μM) of the same compound?
**A.** 113.2%

**Q.** And the “TOXICITY VALUES … SAMPLE” value (PBMC; 10.0 μM)?
**A.** 0.712 O.D. and 1.254 O.D. and 0.846 O.D.

**Q.** What about the “TOXICITY VALUES … MEAN” value (PBMC; 31.6 μM) of the same compound?
**A.** 0.962 O.D.
